From patent US5298414A (priority 1989, dated 1994)
“Also recorded” adds a separate entry of the source. Read-outs that look alike come from different tables or passages of the source.

How the values were obtained:
[1] = biological target: T1, morphine dehydrogenase (MDH) (Pseudomonas putida, UniProt Q02198); test: Cofactor requirement of MDH; assay type: biochemical, Pseudomonas putida MlO
[2] = biological target: T1, morphine dehydrogenase (MDH); test: Substrate specificity of morphine dehydrogenase (Example 4); assay type: biochemical, Pseudomonas putida MlO; conditions: 0.35 μg purified enzyme, pH 9.5
[3] = biological target: T1, morphine dehydrogenase (MDH); test: biochemical; assay type: biochemical, Pseudomonas putida MlO; conditions: for (b) Relative activity: 16 h at 4° C. then 10 min at 30° C., no addition gives 16
[4] = biological target: T1, morphine dehydrogenase (MDH); test: Non-oxidation of steroids by morphine dehydrogenase (Example 2 standard assay); assay type: biochemical, Pseudomonas putida MlO; conditions: morphine replaced by the steroid in the standard assay
[5] = tested on: acetylmorphine carboxylesterase (AMCE); test: Substrate specificity of the AMCE (HPLC); assay type: biochemical, Rhodococcus Hl; conditions: substrate 1.0 mM, purified AMCE 5 U, potassium phosphate buffer pH 7.5, 30° C.
[6] = biological target: T1, morphine dehydrogenase (MDH); assay type: biochemical, Pseudomonas putida MlO
[7] = tested on: washed cells of P. putida MlO; assay type: cell-based, Pseudomonas putida MlO
[8] = 10 min, read-out: (a) Relative activity
[9] = 16 h, read-out: (b) Relative activity

T1 sequence (Q02198 whole entry): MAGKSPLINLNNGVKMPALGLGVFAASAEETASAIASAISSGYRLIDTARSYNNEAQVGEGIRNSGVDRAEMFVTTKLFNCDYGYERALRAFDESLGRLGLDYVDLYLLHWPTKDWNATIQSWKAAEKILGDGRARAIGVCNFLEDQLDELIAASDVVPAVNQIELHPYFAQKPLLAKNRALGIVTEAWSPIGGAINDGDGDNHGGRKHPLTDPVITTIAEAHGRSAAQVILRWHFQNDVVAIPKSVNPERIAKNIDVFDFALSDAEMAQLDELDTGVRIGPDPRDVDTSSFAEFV

3-acetylpyridine ADP
operability as cofactor for MDH [1]: operable

O=C(O)C(O)c1ccccc1 (racemic) [D,L-mandelic acid]
activity relative to 3 mM morphine ([2]; final concentration 10 Mm): zero

O[C@H](CS)[C@H](O)CS (racemic) [Dithiothreitol]
activity at 1000 µM [3, 8]: 97%
activity at 1000 µM [3, 9]: 64%

C[C@]12CC[C@@H](O)C[C@@H]1CC[C@@H]1[C@@H]2CC[C@]2(C)C(=O)CC[C@@H]12 (stereo in doubt) [androsterone]
activity relative to 3 mM morphine ([2]; final concentration 10 Mm): zero
steroid dehydrogenase activity of MDH [4]: No steroid dehydrogenase activity was detected

c1cnc2c(c1)ccc1cccnc12 [1,10-Phenanthroline]
activity at 50 µM [3, 8]: 76%
activity at 500 µM [3, 8]: 61%
activity at 500 µM [3, 9]: 14%

c1ccc(-c2ccccn2)nc1 [2,2'-Dipyridyl]
activity at 50 µM [3, 8]: 75%
activity at 500 µM [3, 8]: 67%
activity at 500 µM [3, 9]: 9%

CC(=O)Oc1ccc2c3c1O[C@H]1[C@@H](O)C=C[C@H]4[C@@H](C2)N(C)CC[C@@]341 [3-acetylmorphine]
time taken to reduce the substrate concentration by 20% [5]: 2 min

CC(=O)O[C@H]1C=C[C@H]2[C@H]3Cc4ccc(O)c5c4[C@@]2(CCN3C)[C@H]1O5 [6-acetylmorphine]
time taken to reduce the substrate concentration by 20% [5]: 240 min
ability to serve as MDH substrate ([6]; pH 10): completely inactive; also recorded: no activity
activity relative to 3 mM morphine ([2]; alkaloid substrates 3 mM): zero

Oc1cccc2cccnc12 [8-Hydroxyquinoline]
(a) Relative activity ([3]; purified mdh, 10 min, 50 µM): 100%

O=S(=O)([O-])[O-].[Cu+2] [CuSO4]
(a) Relative activity ([3]; reagent 0.1 mM, 10 min at room temperature, 100% = 67 U/mg): 34%
(b) Relative activity ([3]; reagent 0.1 mM): 5%

O=C(O)CN(CCN(CC(=O)O)CC(=O)O)CC(=O)O [EDTA]
activity at 500 µM [3, 8]: 104%
activity at 500 µM [3, 9]: 18%

O=C(O)CI [Iodoacetate]
activity at 100 µM [3, 8]: 61%
activity at 1000 µM [3, 8]: 58%
activity at 10000 µM [3, 8]: 54%
activity at 10000 µM [3, 9]: 30%

OCCS [Mercaptoethanol]
activity at 1000 µM [3, 8]: 100%
activity at 1000 µM [3, 9]: 73%

CCN1C(=O)C=CC1=O [N-Ethylmaleimide]
activity at 50 µM [3, 8]: 100%
activity at 1000 µM [3, 8]: 58%
activity at 1000 µM [3, 9]: 23%

NC(=O)c1ccc[n+]([C@@H]2O[C@H](COP(=O)([O-])OP(=O)(O)OC[C@H]3O[C@@H](n4cnc5c(N)ncnc54)[C@H](OP(=O)(O)O)[C@@H]3O)[C@@H](O)[C@H]2O)c1 [NADP^+, nicotinamide adenine dinucleotide phosphate]
operability as cofactor for MDH [1]: absolute requirement

NC(=O)c1ccc[n+]([C@@H]2O[C@H](COP(=O)([O-])OP(=O)(O)OC[C@H]3O[C@@H](n4cnc5c(N)ncnc54)[C@H](O)[C@@H]3O)[C@@H](O)[C@H]2O)c1 [NAD^+]
operability as cofactor for MDH [1]: shown not to be a substrate; also recorded: have not been found to be operable

OCc1ccccc1 [benzyl alcohol]
activity relative to 3 mM morphine ([2]; alcohol substrates 50 mM): zero

CCC(C)O (stereo not drawn) [butan-2-ol]
activity relative to 3 mM morphine ([2]; alcohol substrates 50 mM): zero

COc1ccc2c3c1O[C@H]1[C@@H](O)C=C[C@H]4[C@@H](C2)N(C)CC[C@@]341 [codeine]
activity relative to morphine ([6]; pH 10): 1.7 times that of morphine
activity relative to 3 mM morphine ([2]; alkaloid substrates 3 mM): 120%
metabolism by washed cells grown on heroin [7]: readily metabolised

COc1ccc2c3c1O[C@H]1C(=O)C=C[C@H]4[C@@H](C2)N(C)CC[C@]314 [codeinone]
reverse direction reaction with NADPH [6]: catalysed the oxidation of NADPH
ability to serve as MDH substrate ([6]; pH 10): completely inactive

OC1CCCCC1 [cyclohexanol]
activity relative to 3 mM morphine ([2]; alcohol substrates 50 mM): zero

COc1ccc2c3c1O[C@H]1[C@@H](O)CC[C@H]4[C@@H](C2)N(C)CC[C@@]341 [dihydrocodeine]
ability to serve as MDH substrate ([6]; pH 10): completely inactive; also recorded: did not show any activity
activity relative to 3 mM morphine ([2]; alkaloid substrates 3 mM): 7.1%

CCO [ethanol]
ability to serve as MDH substrate [6]: negative result
ability to serve as MDH substrate ([6]; pH 10): completely inactive; also recorded: does not oxidise
activity relative to 3 mM morphine ([2]; alcohol substrates 50 mM): zero

CCOc1ccc2c3c1O[C@H]1[C@@H](O)C=C[C@H]4[C@@H](C2)N(C)CC[C@@]341 [ethylmorphine]
activity relative to morphine ([6]; pH 10): 1.2 times that of morphine
metabolism by washed cells grown on heroin [7]: readily metabolised

CN1CC[C@]23c4c5ccc(O[C@@H]6O[C@H](C(=O)O)[C@@H](O)[C@H](O)[C@H]6O)c4O[C@H]2[C@@H](O)C=C[C@H]3[C@H]1C5 [morphine glucuronide]
ability to serve as MDH substrate ([6]; pH 10): completely inactive; also recorded: Inactivity

CN1CC[C@]23c4c5ccc(O)c4O[C@H]2[C@@H](O)C=C[C@H]3[C@H]1C5 [morphine]
specific activity as MDH substrate ([6]; pH 10): 0.002 μmol/min./mg. protein
dehydrogenase activity ([2]; 3 mM substrate): 0.0252 μmol NADPH/min

COc1ccc2c3c1O[C@H]1C(=O)CC[C@@]4(O)[C@@H](C2)N(C)CC[C@]314 [oxycodone]
ability to serve as MDH substrate ([6]; pH 10): completely inactive; also recorded: no activity

O=C(O)c1cc[c]([Hg+])cc1.[OH-] [p-Hydroxymercuribenzoate]
(a) Relative activity ([3]; reagent 0.01 mM, 10 min at room temperature, 100% = 67 U/mg): 0%
(b) Relative activity ([3]; reagent 0.01 mM): 0%
activity recovered after incubation with 3 mM dithiothreitol for 10 min ([3]; reagent 0.01 mM, incubation (a)): 45%
activity recovered after incubation with 3 mM dithiothreitol for 10 min ([3]; reagent 0.01 mM, incubation (b)): 23%

CN1CC[C@]23c4c5ccc(OCCN6CCOCC6)c4O[C@H]2[C@@H](O)C=C[C@H]3[C@H]1C5 [pholcodeine]
ability to serve as MDH substrate ([6]; pH 10): completely inactive; also recorded: Inactivity

CC(C)O [propan-2-ol]
activity relative to 3 mM morphine ([2]; alcohol substrates 50 mM): zero

CCCO [propanol]
activity relative to 3 mM morphine ([2]; alcohol substrates 50 mM): zero

C[C@]12CC[C@H]3[C@@H](CCC4=CC(=O)CC[C@@]43C)[C@@H]1CC[C@@H]2O [testosterone]
activity relative to 3 mM morphine ([2]; final concentration 10 Mm): zero
steroid dehydrogenase activity of MDH [4]: No steroid dehydrogenase activity was detected

COC1=CC=C2[C@H]3Cc4ccc(OC)c5c4[C@@]2(CCN3C)[C@H]1O5 [thebaine]
ability to serve as MDH substrate ([6]; pH 10): completely inactive
metabolism by washed cells grown on heroin [7]: not degraded at all

nicotinamide hypoxanthine diphosphate
operability as cofactor for MDH [1]: have not been found to be operable
